Where two headings read alike, the source gives them in different places. *1 amine or outer side, *2 acyl side, *3 side chain or, on linkers, in order; H or OH if unused. Where a SMILES comes first, the peptide text is derived from it. Side-chain parts run from the residue outwards. [ ]: non-standard residue; d: D form. The star is where a group is joined. αMePhe(2-F) = C[C@](N)(Cc1ccccc1F)C(=O)O; γGlu = O=C(O)[C@H](CCC(=O)[*:2])N[*:1]; C14 diacid = O=C(O)CCCCCCCCCCCCC(=O)*; αMeY = C[C@](N)(Cc1ccc(O)cc1)C(=O)O; 4Pal = N[C@@H](Cc1ccncc1)C(=O)O; αMeL = CC(C)C[C@](C)(N)C(=O)O; Orn = NCCC[C@H](N)C(=O)O; AEEA = NCCOCCOCC(=O)O; Aib = CC(C)(N)C(=O)O
Key:
[1] = target: T1, human GLP-1 receptor (hGLP-1R) (Homo sapiens, UniProt P43220); assay: [125I]-GLP-1 binding, SPA with membranes of HEK293 cells expressing hGLP-1R; settings: human GLP-1R; geometric mean (SEM, n); read-out: Binding Affinity Ki, nM (SEM, n) hGLP-1R
T1 construct: expressed in transfected cells; crude membranes
T1 sequence (P43220 24-463): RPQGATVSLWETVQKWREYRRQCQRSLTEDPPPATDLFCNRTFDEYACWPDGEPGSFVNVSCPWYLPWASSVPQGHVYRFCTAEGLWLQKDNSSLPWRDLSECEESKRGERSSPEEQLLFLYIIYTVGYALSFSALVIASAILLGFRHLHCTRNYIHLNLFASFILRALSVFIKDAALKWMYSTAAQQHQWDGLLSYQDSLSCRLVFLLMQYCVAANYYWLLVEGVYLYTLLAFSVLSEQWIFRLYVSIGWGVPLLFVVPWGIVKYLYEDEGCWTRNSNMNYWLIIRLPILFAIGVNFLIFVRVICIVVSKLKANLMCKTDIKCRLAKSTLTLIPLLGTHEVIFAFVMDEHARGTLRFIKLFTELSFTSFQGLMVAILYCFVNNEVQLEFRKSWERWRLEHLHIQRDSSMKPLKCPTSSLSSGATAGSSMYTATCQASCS

hGCGR = target: T2, hGCGR (Homo sapiens, UniProt P47871); assay: Functional cAMP formation (HTRF) in HEK-293 clonal cells expressing hGCGR, 0.1% bovine casein, without or with 1.0% human serum albumin; type: cell-based; settings: read-out: hGCGR EC50, nM (SEM, n)
T2 construct: expressed in transfected cells
T2 sequence (P47871 26-477): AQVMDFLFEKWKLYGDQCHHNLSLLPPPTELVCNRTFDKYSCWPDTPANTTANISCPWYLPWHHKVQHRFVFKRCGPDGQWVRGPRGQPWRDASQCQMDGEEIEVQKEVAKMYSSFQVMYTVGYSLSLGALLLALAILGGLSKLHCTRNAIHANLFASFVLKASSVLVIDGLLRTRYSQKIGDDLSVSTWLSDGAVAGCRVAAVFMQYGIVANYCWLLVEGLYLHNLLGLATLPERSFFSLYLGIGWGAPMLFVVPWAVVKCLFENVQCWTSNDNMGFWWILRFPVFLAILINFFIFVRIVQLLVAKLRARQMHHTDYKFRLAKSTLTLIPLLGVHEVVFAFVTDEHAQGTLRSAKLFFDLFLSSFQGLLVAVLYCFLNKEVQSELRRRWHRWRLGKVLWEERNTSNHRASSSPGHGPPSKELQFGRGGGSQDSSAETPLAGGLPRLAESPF
Procedure, shortened: (§1)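 Readings of the HTRF 665/620 nm ratio, which falls as cAMP rises, were converted to nM cAMP using a standard curve after 30 min peptide exposure at 37° C.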

hGIPR = target: T3, hGIPR (Homo sapiens, UniProt P48546); assay: Functional cAMP formation (HTRF) in HEK-293 clonal cells expressing hGIPR, 0.1% bovine casein, without or with 1.0% human serum albumin; type: cell-based; settings: for Emax: percent of maximal response to GIP(1-42)NH2, read-out: hGIPR Emax, % ± SEM; for EC50: read-out: hGIPR EC50, nM (SEM, n)
T3 construct: expressed in transfected cells
T3 sequence (P48546 22-466): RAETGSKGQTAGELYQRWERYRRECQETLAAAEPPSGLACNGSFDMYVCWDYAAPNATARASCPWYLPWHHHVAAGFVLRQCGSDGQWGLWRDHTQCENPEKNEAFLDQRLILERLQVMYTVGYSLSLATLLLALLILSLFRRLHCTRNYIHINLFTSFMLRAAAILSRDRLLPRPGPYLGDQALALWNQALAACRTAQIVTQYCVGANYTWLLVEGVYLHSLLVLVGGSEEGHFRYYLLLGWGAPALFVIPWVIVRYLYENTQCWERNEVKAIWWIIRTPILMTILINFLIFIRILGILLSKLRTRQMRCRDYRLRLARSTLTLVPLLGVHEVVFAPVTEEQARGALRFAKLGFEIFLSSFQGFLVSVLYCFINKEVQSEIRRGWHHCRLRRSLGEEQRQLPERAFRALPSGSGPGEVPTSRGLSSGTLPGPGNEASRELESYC
Procedure, shortened: as §1

hGLP-1R = hGLP-1R (Homo sapiens, UniProt P43220); assay: Functional cAMP formation (HTRF) in HEK-293 clonal cells expressing hGLP-1R, 0.1% bovine casein, without or with 1.0% human serum albumin; type: cell-based; design: expressed in transfected cells; settings: for Emax: HEK293, cAMP, percent of maximal response to GLP-1(7-36)NH2, read-out: hGLP-1R Emax, % ± SEM; for EC50: read-out: hGLP-1R EC50, nM (SEM, n)
hGLP-1R, sequence (P43220 24-463): as the sequence (P43220 24-463) above
Procedure, shortened: as §1

[2] = cAMP, 37° C., 0.1% bovine casein (no human serum albumin), geometric mean
[3] = cAMP, 37° C., 0.1% bovine casein and 1.0% human serum albumin, geometric mean (SEM, n)
[4] = HEK293, cAMP, 37° C., 0.1% bovine casein and 1.0% human serum albumin
[5] = HEK293, cAMP, 37° C., 0.1% bovine casein, arithmetic mean
[6] = 37° C., 0.1% bovine casein and 1.0% human serum albumin
[7] = 37° C., 0.1% bovine casein, arithmetic mean
[8] = 0.1% bovine casein and 1.0% human serum albumin, 37° C., geometric mean
[9] = cAMP, incubated at 37° C., 0.1% bovine casein (no human serum albumin), geometric mean

Row | SMILES | Ki [1] | EC50 (hGCGR; [2]) | EC50 (hGCGR; [3]) | Emax (hGIPR; [4]) | Emax (hGIPR; [5]) | EC50 (hGIPR; [2]) | EC50 (hGIPR; [3]) | Emax (hGLP-1R; [6]) | Emax (hGLP-1R; [7]) | EC50 (hGLP-1R; [2]) | EC50 (hGCGR; [8]) | EC50 (hGCGR; [9]) | EC50 (hGIPR; [8]) | Emax (hGIPR; HEK293, 0.1% bovine casein and 1.0% human serum albumin, 37° C.) | EC50 (hGIPR; [9]) | EC50 (hGLP-1R; [8]) | EC50 (hGLP-1R; [9]) | EC50 (hGLP-1R; [3])
1 | CC[C@H](C)[C@H](NC(=O)[C@H](CC(C)C)NC(=O)[C@](C)(Cc1ccc(O)cc1)NC(=O)[C@H](CCCCNC(=O)COCCOCCNC(=O)COCCOCCNC(=O)CC[C@H](NC(=O)CCCCCCCCCCCCC(=O)O)C(=O)O)NC(=O)[C@@H](NC(=O)[C@H](Cc1ccccc1)NC(=O)[C@H](CCCN)NC(=O)C(C)(C)NC(=O)[C@H](CCC(N)=O)NC(=O)[C@H](C)NC(=O)[C@H](CCC(N)=O)NC(=O)[C@H](CCCN)NC(=O)[C@H](CC(=O)O)NC(=O)[C@H](CC(C)C)NC(=O)[C@](C)(CC(C)C)NC(=O)CNC(=O)C(C)(C)NC(=O)[C@H](Cc1ccncc1)NC(=O)[C@H](CC(=O)O)NC(=O)[C@H](CO)NC(=O)[C@@H](NC(=O)[C@](C)(Cc1ccccc1F)NC(=O)[C@@H](NC(=O)CNC(=O)[C@H](CCC(=O)O)NC(=O)C(C)(C)NC(=O)[C@@H](N)Cc1ccc(O)cc1)[C@@H](C)O)[C@@H](C)O)[C@@H](C)CC)C(=O)N[C@@H](CCCCNC(=O)COCCOCCNC(=O)COCCOCCNC(=O)CC[C@H](NC(=O)CCCCCCCCCCCCC(=O)O)C(=O)O)C(=O)NCC(=O)NCC(=O)N1CCC[C@H]1C(=O)N[C@@H](CO)C(=O)N[C@@H](CO)C(=O)NCC(=O)N[C@@H](C)C(=O)N1CCC[C@H]1C(=O)N1CCC[C@H]1C(=O)N1CCC[C@H]1C(=O)N[C@@H](CO)C(N)=O [Example 441] (H-Y[Aib]EGT[αMePhe(2-F)]TSD[4Pal][Aib]G[αMeL]LD[Orn]QAQ[Aib][Orn]FIK([AEEA-AEEA-γGlu-C14 diacid])[αMeY]LIK([AEEA-AEEA-γGlu-C14 diacid])GGPSSGAPPPS-NH2) | 0.386 nM | > 9950 nM | > 9950 nM | 83.8% | 97.2% | 0.0174 nM | 1.38 nM | 111% | 110% | 0.134 nM | – | – | – | – | – | – | – | –
2 | CCCCCCCCCCCC(=O)N[C@@H](CCC(=O)NCCOCCOCC(=O)NCCOCCOCC(=O)NCCOCCOCC(=O)NCCCC[C@H](NC(=O)[C@H](CO)NC(=O)[C@@H]1CCCN1C(=O)[C@@H]1CCCN1C(=O)[C@@H]1CCCN1C(=O)[C@H](C)NC(=O)CNC(=O)[C@H](CO)NC(=O)[C@H](CO)NC(=O)[C@@H]1CCCN1C(=O)CNC(=O)CNC(=O)[C@H](CCC(=O)O)NC(=O)[C@@H](NC(=O)[C@H](CC(C)C)NC(=O)[C@](C)(Cc1ccc(O)cc1)NC(=O)[C@@H](CCC(=O)O)NC(=O)[C@@H](NC(=O)[C@H](Cc1ccccc1)NC(=O)[C@H](CCCN)NC(=O)C(C)(C)NC(=O)[C@H](CCC(N)=O)NC(=O)[C@H](C)NC(=O)[C@H](CCCCNC(=O)COCCOCCNC(=O)COCCOCCNC(=O)COCCOCCNC(=O)CC[C@H](NC(=O)CCCCCCCCCCC)C(=O)O)NC(=O)[C@H](CCCN)NC(=O)[C@H](CC(=O)O)NC(=O)[C@H](CC(C)C)NC(=O)[C@](C)(CC(C)C)NC(=O)[C@@H](NC(=O)C(C)(C)NC(=O)[C@H](Cc1ccncc1)NC(=O)[C@H](CC(=O)O)NC(=O)[C@H](CO)NC(=O)[C@@H](NC(=O)[C@](C)(Cc1ccccc1F)NC(=O)[C@@H](NC(=O)CNC(=O)[C@H](CCC(=O)O)NC(=O)C(C)(C)NC(=O)[C@@H](N)Cc1ccc(O)cc1)[C@@H](C)O)[C@@H](C)O)[C@@H](C)CC)[C@@H](C)CC)[C@@H](C)CC)C(N)=O)C(=O)O [Example 435] | 0.122 nM | > 9950 nM | > 9950 nM | 98.7% | – | 0.00517 nM | – | 97.8% | 111% | 0.0527 nM | – | – | – | – | – | – | – | –
3 | CCCCCCCCCCCC(=O)N[C@@H](CCC(=O)NCCOCCOCC(=O)NCCOCCOCC(=O)NCCCC[C@H](NC(=O)[C@H](CCCN)NC(=O)[C@H](CC(=O)O)NC(=O)[C@H](CC(C)C)NC(=O)[C@](C)(CC(C)C)NC(=O)[C@@H](NC(=O)[C@H](CO)NC(=O)[C@H](Cc1ccncc1)NC(=O)[C@H](CC(=O)O)NC(=O)[C@H](CO)NC(=O)[C@@H](NC(=O)[C@](C)(Cc1ccccc1F)NC(=O)[C@@H](NC(=O)CNC(=O)[C@H](CCC(=O)O)NC(=O)C(C)(C)NC(=O)[C@@H](N)Cc1ccc(O)cc1)[C@@H](C)O)[C@@H](C)O)[C@@H](C)CC)C(=O)N[C@@H](C)C(=O)N[C@@H](CCC(N)=O)C(=O)NC(C)(C)C(=O)N[C@@H](CCCCNC(=O)COCCOCCNC(=O)COCCOCCNC(=O)CC[C@H](NC(=O)CCCCCCCCCCC)C(=O)O)C(=O)N[C@@H](Cc1ccccc1)C(=O)N[C@H](C(=O)N[C@H](CCC(=O)O)C(=O)N[C@@](C)(Cc1ccc(O)cc1)C(=O)N[C@@H](CC(C)C)C(=O)N[C@H](C(=O)N[C@@H](CCC(=O)O)C(=O)NCC(=O)NCC(=O)N1CCC[C@H]1C(=O)N[C@@H](CO)C(=O)N[C@@H](CO)C(=O)NCC(=O)N[C@@H](C)C(=O)N1CCC[C@H]1C(=O)N1CCC[C@H]1C(=O)N1CCC[C@H]1C(=O)N[C@@H](CO)C(N)=O)[C@@H](C)CC)[C@@H](C)CC)C(=O)O [Example 137] | 0.25 nM | – | – | – | – | – | – | – | – | – | > 9950 nM | > 9950 nM | 0.728 nM | 90.3 ± 0.387% | 0.0116 nM | 5.02 nM | 0.134 nM | –
4 | CCCCCCCCCCCC(=O)N[C@@H](CCC(=O)NCCOCCOCC(=O)NCCOCCOCC(=O)NCCOCCOCC(=O)NCCCC[C@H](NC(=O)[C@H](CCCN)NC(=O)[C@H](CC(=O)O)NC(=O)[C@H](CC(C)C)NC(=O)[C@](C)(CC(C)C)NC(=O)[C@@H](NC(=O)C(C)(C)NC(=O)[C@H](Cc1ccncc1)NC(=O)[C@H](CC(=O)O)NC(=O)[C@H](CO)NC(=O)[C@@H](NC(=O)[C@](C)(Cc1ccccc1F)NC(=O)[C@@H](NC(=O)CNC(=O)[C@H](CCC(=O)O)NC(=O)C(C)(C)NC(=O)[C@@H](N)Cc1ccc(O)cc1)[C@@H](C)O)[C@@H](C)O)[C@@H](C)CC)C(=O)N[C@@H](C)C(=O)N[C@@H](CCC(N)=O)C(=O)NC(C)(C)C(=O)N[C@@H](CCCN)C(=O)N[C@@H](Cc1ccccc1)C(=O)N[C@H](C(=O)N[C@H](CCC(=O)O)C(=O)N[C@@](C)(Cc1ccc(O)cc1)C(=O)N[C@@H](CC(C)C)C(=O)N[C@H](C(=O)N[C@@H](CCCCNC(=O)COCCOCCNC(=O)COCCOCCNC(=O)COCCOCCNC(=O)CC[C@H](NC(=O)CCCCCCCCCCC)C(=O)O)C(=O)NCC(=O)NCC(=O)N1CCC[C@H]1C(=O)N[C@@H](CO)C(=O)N[C@@H](CO)C(=O)NCC(=O)N[C@@H](C)C(=O)N1CCC[C@H]1C(=O)N1CCC[C@H]1C(=O)N1CCC[C@H]1C(=O)N[C@@H](CO)C(N)=O)[C@@H](C)CC)[C@@H](C)CC)C(=O)O [Example 434] | 0.15 nM | > 9950 nM | > 9950 nM | 97.5% | 98.3% | 0.00704 nM | – | – | – | 0.0837 nM | – | – | – | – | – | – | – | 1.73 nM

From US20230265151A1, “GIP/GLP1 CO-AGONIST COMPOUNDS” (priority 2020, published 2023)
